Measurements from patent US20250302862A1, “SMALL RNA DRUG FOR INHIBITING ACTIVITY OF CANCER CELLS” (Institute of Basic Medical Sciences Chinese Academy of …, priority 2022, published 2025).

Key:
[1] = Body weight of mice with primary lung cancer; assay type: in vivo, mouse; conditions: KP mice, 10 nmol daily by gavage for one month, sphingosine(d18:1) delivery system, vs NC group
From the text: (§1) The mouse model of primary lung cancer was Kras^LSL-G12Dp53^fl/fl (KP).
(§2) Mice were weighed and assigned to the negative control group (NC group) and HQi-sRNA-2 group randomly. The NC group was the negative control, in which a sphingosine(d18:1)-NC-sRNA herbal medicine delivery system was constructed from NC-sRNA. The HQi-sRNA-2 group was the experimental group, in which a sphingosine(d18:1)-HQi-sRNA-2 herbal medicine delivery system was constructed from HQi-sRNA-2.
(§3) The herbal medicine delivery system was constructed by heating and mixing 10 nmol of sRNA, 100 ug of sphingosine(d18:1) and 300 ul of sterile enzyme-free water in a water bath at 90° C. for 15 minutes.
(§4) Each mouse with a uniform body weight was dosed by gavage. Each mouse was given 10 nmol of HQi-sRNA-2 mimic daily by gavage for one month.
The body weight of each mouse was recorded, the curve of body weight over time was plotted, and statistical analysis was performed.

[2] = system: primary lung cancer Kras^LSL-G12Dp53^fl/fl (KP) mouse model; assay: Tumor tissue apoptosis, caspase-3 immunohistochemistry of lung sections; assay type: in vivo; conditions: 10 nmol daily by gavage for one month, vs NC group
From the text: as §1, §2, §3, §4
The lungs of mice were collected to prepare pathological sections. The left lung was collected and sliced at the largest surface for every mouse, and subjected to immunohistochemistry of caspase-3. The area of positive cell population in the whole pathological section was counted, the tumor burden was calculated, and statistical analysis was performed.

[3] = system: cyclooxygenase-2 (COX2); assay: COX2 mRNA (RT-PCR/QPCR) and protein (western blot) in H460 cells; assay type: cell-based, human; conditions: final concentration 10 nmol/L
Description: Method for cell experiment: H460 cells with a cell density of more than 90% in 10 cm2 dishes were plated in 12-well plates (2 plates) according to the cell growth rate, and transfected after 12 h, and the groups were divided as follows: • blank control group (4 wells): 200 uL of opti-MEM per well • negative control group (NC group) and experimental group (3 wells each): the system of each well was as follows • A. 100 uL of opti-MEM and 2 uL of iMax were mixed well for 5 min • B. 100 uL of opti-MEM and 5 uL of small RNA (final concentration 10 nmol/L) were mixed well • C. solution A and solution B were mixed well and let stand for 15 min, and then was added to each well at a 200 uL system • Note: 100 uL of nuclease-free water was added to 2 nmol of small RNA dry powder for dissolution at a storage concentration of 20 umol/L
Cells were collected with Trizo after 24 h of incubation and RNA was extracted. Cells on another plate were collected with RIPA lysis buffer after 48 h of incubation and protein was extracted.
(§5) The relative amount of COX-2 mRNA in the RNA in Method 1 and Method 2 was measured by RT-PCR and QPCR technologies.
(§6) The relative amount of COX-2 protein in the protein in Method 1 and Method 2 was measured by western blot technology.

[4] = system: cyclooxygenase-2 (COX2); assay: COX2 mRNA and protein in lung tissues of mice with lung cancer; assay type: in vivo, mouse; conditions: lung tissues of KP mice, 10 nmol daily by gavage for one month
From the text: Methods for animal experiment: the mouse model of primary lung cancer was KrasLSL-G12Dp53fl/fl (KP).
Mice were weighed and assigned to the NC group and HQi-sRNA-2 group randomly. The NC group was the negative control, in which a sphingosine(d18:1)-NC-sRNA herbal medicine delivery system was constructed from NC-sRNA. The HQi-sRNA-2 group was the experimental group, in which a sphingosine(d18:1)-HQi-sRNA-2 herbal medicine delivery system was constructed from HQi-sRNA-2.
as §3, §4
RNA and protein were extracted from the right lung of all mice.
as §5, §6

[5] = system: pancreatic cancer ASPC-1 cells; assay: Cell invasion (Matrigel Transwell); assay type: cell-based, human; conditions: 100 nmol/L, jetPRIME, 72 h
Description: 1) Matrigel basement membrane matrix was thawed on crushed ice one night before and diluted with serum-free medium to a final concentration of 200-300 ug/mL. 100 uL of the diluted Matrigel was added to each upper chamber, let stand at 37° C. for 30 min, and the supernatant was aspirated. ASPC-1 cells and BXPC-3 cells with a cell density of more than 90% in 10 cm^2 dishes were digested and resuspended with 1 mL of serum-free medium and counted. 100,000 cells (100 uL) were plated in the upper chamber, and complete medium with 10% FBS was added to the lower chamber of each chamber. Transfection was performed after 12 h, and the groups (3 wells per group) were divided as follows: • blank control group: 10 uL of jetPRIME Buffer • negative control group (NC group) and experimental group: 10 uL of jetPRIME Buffer was mixed well with 0.5 uL of jetPRIME reagent and 0.5 uL of small RNA and let stand for 15 min, and then was added to each well at a 10 uL system (final concentration 100 nmol/L) • Note: 100 uL of nuclease-free water was added to 2 nmol of small RNA dry powder for dissolution at a storage concentration of 20 umol/L
After 72 h, the medium in upper and lower chambers was discarded. The cells were fixed with paraformaldehyde at room temperature for 15 min, stained with 0.1% crystal violet at room temperature for 15 min, and rinsed with PBS. […]

[6] = system: pancreatic cancer BXPC-3 cells; assay: Cell invasion (Matrigel Transwell); assay type: cell-based, human; conditions: 100 nmol/L, jetPRIME, 72 h
Description: 1) Matrigel basement membrane matrix was thawed on crushed ice one night before and diluted with serum-free medium to a final concentration of 200-300 ug/mL. 100 uL of the diluted Matrigel was added to each upper chamber, let stand at 37° C. for 30 min, and the supernatant was aspirated. ASPC-1 cells and BXPC-3 cells with a cell density of more than 90% in 10 cm^2 dishes were digested and resuspended with 1 mL of serum-free medium and counted. 100,000 cells (100 uL) were plated in the upper chamber, and complete medium with 10% FBS was added to the lower chamber of each chamber. […]
1) Matrigel basement membrane matrix was thawed on crushed ice one night before and diluted with serum-free medium to a final concentration of 200-300 ug/mL. […] BXPC-3 cells with a cell density of more than 90% in 10 cm^2 dishes were digested and resuspended with 1 mL of serum-free medium and counted. […]

## HQi-sRNA-2: small RNA derived from Scutellaria baicalensis, sequence AUGGUUCGAUUCCGGAGAGGG (listed as RNA, chemistry not given here)
[1]
  body weight of mice with primary lung cancer: significantly maintained
[2]
  tumor tissue apoptosis of mice with primary lung cancer: significantly increased
[3]; 24 h, RT-PCR and QPCR
  mRNA level of COX2: significantly down-regulate
[3]; 48 h, western blot
  protein level of COX2: significantly down-regulate
[4]; RT-PCR and QPCR
  mRNA level of COX2: significantly down-regulate
[4]; western blot
  protein level of COX2: significantly down-regulate

## MDM-sRNA-39: small RNA derived from Maytenus hookeri, sequence GGGAUUGUAGUUCAAUUGGUCAGAGCACC (listed as RNA, chemistry not given here)
[5]
  cell invasion: inhibits
[6]
  cell invasion: inhibits

## MDM-sRNA-163: small RNA derived from Maytenus hookeri, sequence UGACUCUAGUCCGACUUUGUGAAAUGACU (listed as RNA, chemistry not given here)
[6]
  cell invasion: inhibits
